Patent publication US10738028B2, “Spiro three-membered ring, spiro five-membered ring peptide deformylase inhibitor and use thereof in antibacteria and anti-tumor” (priority 2016, dated 2020)

Test system: methicillin-resistant Staphylococcus aureus (MRSA)
Experiment: MIC, two-fold agar dilution (CLSI), clinical isolates
Format: cell-based
Details: Table 8; strain and unit inferred, MRSA
Description: 1. The invention adopts the two-fold agar dilution method recommended by the operating procedure of antimicrobial susceptibility testing set by American Clinical and Laboratory Standards Institute (CLSI) to determine the Minimum Inhibitory Concentration (MIC) of the test samples against the tested strains.

Measured MIC [µg/mL]	Compound
1	CCCC[C@H](CN(O)C=O)C(=O)N1CC=C[C@H]1C(=O)Nc1ccc(F)c[n+]1[O-] [B, reference compound]
0.5	C=C1C[C@@H](C(=O)Nc2ccc(F)c[n+]2[O-])N(C(=O)[C@H](CCCC)CN(O)C=O)C1 [C, reference compound]
0.125	CCCC[C@H](CN(O)C=O)C(=O)N1CC2(CC2)C[C@H]1C(=O)Nc1ccc(F)c[n+]1[O-] [D]

Compound	Measured MIC [µg/mL]
CCCC[C@H](CN(O)C=O)C(=O)N1CCC[C@H]1C(=O)Nc1ccc(F)c[n+]1[O-] [A, reference compound]	0.5
